The source of these data is ChEMBL document CHEMBL2074207, “Functional characterization of human breast cancer resistance protein (BCRP, ABCG2) expressed in the oocytes of Xenopus laevis” (Mol Pharmacol, 2003).

The target in the data set is T1, Broad substrate specificity ATP-binding cassette transporter ABCG2 (Homo sapiens, UniProt Q9UNQ0).
T1 sequence (Q9UNQ0 whole entry): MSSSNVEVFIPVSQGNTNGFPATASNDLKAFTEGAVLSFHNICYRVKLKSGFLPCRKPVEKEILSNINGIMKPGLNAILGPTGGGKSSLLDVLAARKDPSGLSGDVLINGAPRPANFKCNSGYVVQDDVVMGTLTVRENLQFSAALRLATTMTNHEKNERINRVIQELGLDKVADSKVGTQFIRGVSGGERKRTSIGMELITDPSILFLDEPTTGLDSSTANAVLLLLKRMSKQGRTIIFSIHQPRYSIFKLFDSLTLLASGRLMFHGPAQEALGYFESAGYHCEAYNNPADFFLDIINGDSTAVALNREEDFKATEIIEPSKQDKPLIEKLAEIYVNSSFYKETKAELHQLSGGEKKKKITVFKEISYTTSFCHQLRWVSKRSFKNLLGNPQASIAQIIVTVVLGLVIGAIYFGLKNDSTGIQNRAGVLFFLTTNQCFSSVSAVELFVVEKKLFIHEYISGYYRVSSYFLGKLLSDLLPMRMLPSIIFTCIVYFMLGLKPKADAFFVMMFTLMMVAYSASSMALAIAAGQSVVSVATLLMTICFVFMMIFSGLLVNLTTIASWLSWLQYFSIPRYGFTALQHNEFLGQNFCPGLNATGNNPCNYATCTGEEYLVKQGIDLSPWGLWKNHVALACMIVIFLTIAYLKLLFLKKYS
Put plainly: TP_TRANSPORTER: uptake in BCRP-expressing oocyte cells. To be noted: xenopus laevis. The format is functional, cell-based.
Regarding `CN1CC[C@H](c2c(O)cc(O)c3c(=O)cc(-c4ccccc4Cl)oc23)[C@H](O)C1` [ALVOCIDIB], the Activity entry was “substrate []”.
To `COc1cccc2c1C(=O)c1c(O)c3c(c(O)c1C2=O)C[C@@](O)(C(C)=O)C[C@@H]3O[C@H]1C[C@H](N)[C@H](O)[C@H](C)O1` [DAUNORUBICIN] belongs “substrate []”; to `O=C1c2c(O)ccc(O)c2C(=O)c2c(NCCNCCO)ccc(NCCNCCO)c21` [MITOXANTRONE], “substrate []”; to `COC(=O)c1ccccc1-c1c2ccc(=N)cc-2oc2cc(N)ccc12.Cl` [RHODAMINE123], “substrate []”.
